Reference: US7514579B2, “Boronic chalcone derivatives and uses thereof” (Johns Hopkins University, priority 2002, dated 2009)

What follows are compounds tested on MCF-10A normal breast epithelial cell line (assay: MTT survival assay, MCF-10A cells). Details: MTT growth inhibition, 96 hours exposure.
Type: cell-based, human
Procedure: (§1) The cytotoxicity of the boronic chalcone analogs and carboxylic acid chalcones were evaluated and compared by MTT survival assays of human breast cancer MDA-MB-435, MDA-MB-231, Wt-MCF7, and MCF-10A cells treated at different concentrations of the analogs.
(§2) Human breast cancer MDA-MB-231 (estrogen independent) and wtMCF7 (estrogen dependent) human breast cancer cells were maintained in DMEM medium supplemented with 5% fetal bovine serum, 2 mM glutamine, and 100 units/mL penicillin/streptomycin. MDA-MB-435 (estrogen independent) human breast cancer cells were maintained in IMEM medium supplemented with 5% fetal bovine serum and 2 mM glutamine. Each cell line used has unique growth characteristics spanning the spectrum of tumor invasiveness, differentiation and estrogen dependence. Normal breast epithelial cell lines, MCF-10A and MCF-12A, were maintained in 5% and 10% horse serum in DMEM:Ham's F12 media, respectively, supplemented with 2 mM glutamine, 100 units/mL penicillin/streptomycin, 0.02 μg/mL EGF, 0.01 mg/mL insulin, and 0.1 μg/mL cholera toxin.
(§3) Cells were incubated at 37° C. in a 5% CO2 atmosphere. The MTT colorimetric assay was used to determine growth inhibition (Mosmann, T., J. Immunol. Methods, 1983, 65, 55-63). Cells were plated in 96-well plates and allowed to attach for 24 hours. Chalcone derivatives based on compounds 20 and 21 below were dissolved in DMSO at 10 mM concentrations. Cells were expose in quadruplicate well to chalcone concentrations of 0.5-100 µM for 96 hours. After 96 hours the media was aspirated, and 100 µL of 1 mg/mL MTT solution (Sigma Chemical Co.) diluted in serum free media was added to each well. After 4 hours of incubation, the MTT solution was removed and 200 µL of 1:1 (v/v) solution of DMSO:ethanol was added to each well to dissolve formazan crystals. The absorbance at A540nm was determined on a plate reader. IC50 values were determined from log plots of percent of control vs. concentration. Each compound was assayed twice in quadruplicate. Analogs 3g and 9 have been previously described (Stoll R., et al., supra; Kussie, P. H., et al., supra) and were included for comparative purposes.

Row | Compound | IC50
1 | O=C(/C=C/c1ccc(I)cc1)c1ccc(OCB(O)O)cc1 [Compound 7] | 38 µM
2 | O=C(/C=C/c1ccc(F)c(F)c1)c1ccc(B(O)O)cc1 [Compound 3d] | 18 µM
3 | O=C(/C=C/c1ccc(Cl)c(Cl)c1)c1ccc(B(O)O)cc1 [Compound 3b] | 18 µM
4 | O=C(O)COc1ccc(C(=O)/C=C/c2ccc(I)cc2)cc1 [Compound 3f] | 44 µM
5 | O=C(/C=C/c1ccc(Cl)c(Cl)c1)c1ccc(B(O)O)cc1 [Compound 8] | 18 µM
6 | O=C(/C=C/c1ccc(I)cc1)c1ccc(B(O)O)cc1 [Compound 3a] | 75 µM
7 | O=C(/C=C/c1ccc(F)c(Br)c1)c1ccc(B(O)O)cc1 [Compound 3e] | 17 µM
8 | O=C(O)COc1ccc(C(=O)/C=C/c2ccc(Cl)c(Cl)c2)cc1 [Compound 9, reference compound] | 12 µM
9 | O=C(/C=C/c1ccc(I)cc1)c1ccc(O)cc1 [Compound 6] | 15 µM
10 | O=C(/C=C/c1ccc(F)c(Cl)c1)c1ccc(B(O)O)cc1 [Compound 3c] | 25 µM
11 | O=C(O)COc1ccc(C(=O)/C=C/c2ccc(Cl)c(Cl)c2)cc1 [Compound 3g, reference compound] | 13 µM

These compounds were tested on wtMCF7 (estrogen dependent) human breast cancer cells (assay: MTT survival assay, Wt-MCF7 cells). Details: MTT growth inhibition, 96 hours exposure.
Type: cell-based
Procedure: as §1, §2, §3

Row | Compound | IC50
12 | O=C(/C=C/c1ccc(I)cc1)c1ccc(OCB(O)O)cc1 [Compound 7] | 9.5 µM
13 | O=C(/C=C/c1ccc(F)c(F)c1)c1ccc(B(O)O)cc1 [Compound 3d] | 7.8 µM
14 | O=C(/C=C/c1ccc(Cl)c(Cl)c1)c1ccc(B(O)O)cc1 [Compound 3b] | 5 µM
15 | O=C(O)COc1ccc(C(=O)/C=C/c2ccc(I)cc2)cc1 [Compound 3f] | 9 µM
16 | O=C(/C=C/c1ccc(Cl)c(Cl)c1)c1ccc(B(O)O)cc1 [Compound 8] | 5.5 µM
17 | O=C(/C=C/c1ccc(I)cc1)c1ccc(B(O)O)cc1 [Compound 3a] | 7 µM
18 | O=C(/C=C/c1ccc(F)c(Br)c1)c1ccc(B(O)O)cc1 [Compound 3e] | 8.5 µM
19 | O=C(O)COc1ccc(C(=O)/C=C/c2ccc(Cl)c(Cl)c2)cc1 [Compound 9, reference compound] | 15 µM
20 | O=C(/C=C/c1ccc(I)cc1)c1ccc(O)cc1 [Compound 6] | 7 µM
21 | O=C(/C=C/c1ccc(F)c(Cl)c1)c1ccc(B(O)O)cc1 [Compound 3c] | 6 µM
22 | O=C(O)COc1ccc(C(=O)/C=C/c2ccc(Cl)c(Cl)c2)cc1 [Compound 3g, reference compound] | 13 µM

What follows are compounds tested on MDA-MB-231 (estrogen independent) human breast cancer cells (assay: MTT survival assay, MDA-MB-231 cells). Details: MTT growth inhibition, 96 hours exposure.
Type: cell-based
Procedure: as §1, §2, §3

Row | Compound | IC50
23 | O=C(/C=C/c1ccc(I)cc1)c1ccc(OCB(O)O)cc1 [Compound 7] | 11 µM
24 | O=C(/C=C/c1ccc(F)c(F)c1)c1ccc(B(O)O)cc1 [Compound 3d] | 8.8 µM
25 | O=C(/C=C/c1ccc(Cl)c(Cl)c1)c1ccc(B(O)O)cc1 [Compound 3b] | 9.5 µM
26 | O=C(O)COc1ccc(C(=O)/C=C/c2ccc(I)cc2)cc1 [Compound 3f] | 44 µM
27 | O=C(/C=C/c1ccc(Cl)c(Cl)c1)c1ccc(B(O)O)cc1 [Compound 8] | 8 µM
28 | O=C(/C=C/c1ccc(I)cc1)c1ccc(B(O)O)cc1 [Compound 3a] | 8.8 µM
29 | O=C(/C=C/c1ccc(F)c(Br)c1)c1ccc(B(O)O)cc1 [Compound 3e] | 9.5 µM
30 | O=C(O)COc1ccc(C(=O)/C=C/c2ccc(Cl)c(Cl)c2)cc1 [Compound 9, reference compound] | 18 µM
31 | O=C(/C=C/c1ccc(I)cc1)c1ccc(O)cc1 [Compound 6] | 8 µM
32 | O=C(/C=C/c1ccc(F)c(Cl)c1)c1ccc(B(O)O)cc1 [Compound 3c] | 8.5 µM
33 | O=C(O)COc1ccc(C(=O)/C=C/c2ccc(Cl)c(Cl)c2)cc1 [Compound 3g, reference compound] | 9 µM

Each compound was assayed on MDA-MB-435 (estrogen independent) human breast cancer cells (assay: MTT survival assay, MDA-MB-435 cells). Details: MTT growth inhibition, 96 hours exposure.
Type: cell-based
Procedure: as §1, §2, §3

Row | Compound | IC50
34 | O=C(/C=C/c1ccc(I)cc1)c1ccc(OCB(O)O)cc1 [Compound 7] | 18 µM
35 | O=C(/C=C/c1ccc(F)c(F)c1)c1ccc(B(O)O)cc1 [Compound 3d] | 8.8 µM
36 | O=C(/C=C/c1ccc(Cl)c(Cl)c1)c1ccc(B(O)O)cc1 [Compound 3b] | 3.5 µM
37 | O=C(O)COc1ccc(C(=O)/C=C/c2ccc(I)cc2)cc1 [Compound 3f] | 18 µM
38 | O=C(/C=C/c1ccc(Cl)c(Cl)c1)c1ccc(B(O)O)cc1 [Compound 8] | 4 µM
39 | O=C(/C=C/c1ccc(I)cc1)c1ccc(B(O)O)cc1 [Compound 3a] | 10 µM
40 | O=C(/C=C/c1ccc(F)c(Br)c1)c1ccc(B(O)O)cc1 [Compound 3e] | 8.8 µM
41 | O=C(O)COc1ccc(C(=O)/C=C/c2ccc(Cl)c(Cl)c2)cc1 [Compound 9, reference compound] | 13 µM
42 | O=C(/C=C/c1ccc(I)cc1)c1ccc(O)cc1 [Compound 6] | 4.5 µM
43 | O=C(/C=C/c1ccc(F)c(Cl)c1)c1ccc(B(O)O)cc1 [Compound 3c] | 16 µM
44 | O=C(O)COc1ccc(C(=O)/C=C/c2ccc(Cl)c(Cl)c2)cc1 [Compound 3g, reference compound] | 9 µM

The compounds below were run on MCF-12A normal breast epithelial cell line (assay: MTT survival assay, MCF-12A cells). Details: MTT growth inhibition, 96 hours exposure.
Type: cell-based, human
Procedure: as §1, §2, §3

Row | Compound | IC50
45 | O=C(/C=C/c1ccc(I)cc1)c1ccc(OCB(O)O)cc1 [Compound 7] | 100 µM
46 | O=C(/C=C/c1ccc(F)c(F)c1)c1ccc(B(O)O)cc1 [Compound 3d] | 39 µM
47 | O=C(/C=C/c1ccc(Cl)c(Cl)c1)c1ccc(B(O)O)cc1 [Compound 3b] | 11 µM
48 | O=C(O)COc1ccc(C(=O)/C=C/c2ccc(I)cc2)cc1 [Compound 3f] | 38 µM
49 | O=C(/C=C/c1ccc(Cl)c(Cl)c1)c1ccc(B(O)O)cc1 [Compound 8] | 15 µM
50 | O=C(/C=C/c1ccc(I)cc1)c1ccc(B(O)O)cc1 [Compound 3a] | 63 µM
51 | O=C(/C=C/c1ccc(F)c(Br)c1)c1ccc(B(O)O)cc1 [Compound 3e] | 38 µM
52 | O=C(O)COc1ccc(C(=O)/C=C/c2ccc(Cl)c(Cl)c2)cc1 [Compound 9, reference compound] | 28 µM
53 | O=C(/C=C/c1ccc(I)cc1)c1ccc(O)cc1 [Compound 6] | 30 µM
54 | O=C(/C=C/c1ccc(F)c(Cl)c1)c1ccc(B(O)O)cc1 [Compound 3c] | 22 µM
55 | O=C(O)COc1ccc(C(=O)/C=C/c2ccc(Cl)c(Cl)c2)cc1 [Compound 3g, reference compound] | 15 µM
